The source of these data is US6365173B1, “Stereocomplex polymeric carriers for drug delivery” (Efrat Biopolymers Ltd., priority 1999, dated 2002).

What all share (format): physicochemical
Data set [1] is described as follows: In vitro release of leuprolide from D-PLA/L-PLA complex powder. The settings on record: in 40 days; 4 mg leuprolide acetate in D-PLA/L-PLA complex powder; phosphate buffer pH 7.4 at 37° C. As to the method: Preparation of complex: Solutions of leuprolide acetate in acetonitrile (4 mg) and D-PLA, (58 mg, Mw=100,000) and L-PLA (38 mg, Mw=30,000) in acetonitrile were mixed together (total 5 ml) and allowed to stir for 3 days at 50° C. The precipitated powder was isolated by filtration to yield 98 mg of 1 micron size porous particles. No leuprolide remained in the acetonitrile solution.
In vitro release was conducted in phosphate buffer pH 7.4 at 37° C. Leuprolide concentration was determined by HPLC (acetonitrile:water, C18 column, 1 ml/min). About 37% of the drug was released constantly in 40 days.

The nature of data set [2]: Release of lidocaine from compression molded stereocomplex devices in buffer. The settings on record: compression molded D-PLA/L-PLA stereocomplex (200 mg, Mw=30,000) with lidocaine (20 mg); buffer solution pH 7.4 at 37° C. As for the experimental part: A fine powder of the nano-discs stereocomplexed of D-PLA and L-PLA and their complexes which were of flat shapes of discs, rods, and triangles, as analyzed in Example 3, provided a unique opportunity for the preparation of drug delivery devices. Devices were prepared by compression molding of these nanoscale structures with drugs.
The disintegration time and the release of the incorporated drug in buffer solutions was slower than the compression molded devices of the corresponding regular polymers. The regular polymer powders are difficult to obtain and their properties are erratic, since they are prepared by precipitation in non-aqueous solvent and grinding at a temperature below the glass transition temperature which provides irregular particle size and shape. The particles formed by stereocomplex formation are of well-defined flat crystallites that are easy to compression mold.
In a typical experiment, disc (10×2 mm) and rod shape (4×10 mm) devices were prepared by mixing the stereocomplex powder of D-PLA and L-PLA (200 mg, Mw=30,000) with lidocaine (20 mg) and compression molding into discs of […] size.
Lidocaine was released constantly for 30 days when placed in buffer solution p H7.4 at 37° C.

Data set [3] in a line: MTX release from PLA stereocomplex tablets in phosphate buffer. The settings on record: first 10 days; 10 ml pH 7.4 phosphate buffer at 37° C., shaking 150 RPM. As to the method: Formulations: MTX was incorporated in a stereocomplex of D-PLA/L-PLA (Mw=30,000) prepared by precipitation in acetonitrile. The drug in the form of a powder was mixed with the stereocomplex in the form of a powder, and the mixture compression molded to form tablets. Alternatively, the stereocomplex and MTX were dissolved in dichloromethane, and solvent evaporated to yield a fine powder. For comparison, a solution of random amorphic DL-PLA (Mw=30,000) and MTX was evaporated to dryness to yield a clear flexible and strong yellow film which could be formed into a powder through the use of liquid nitrogen.
In a typical experiment, 300 mg of PLA 1:1 stereocomplex was dissolved in dichloromethane. MTX (5% w/w) was added to the solution, and the mixture was vortexed for two minutes. The solvent was evaporated with a nitrogen stream, to yield a very fine powder. […] Discs were prepared by compression molding of the MTX—stereocomplex power (100 mg) using a stainless steel mold (internal diameter 10 mm) and a Carver Press at 10 tons. Alternatively, 300 mg of PLA 1:1 stereocomplex fine powder (average particle size 2.2 microns was mixed with MTX (150 mg) and the uniform powder was compressed into tablets of 200 mg each.
MTX release was conducted in 10 ml of pH 7.4 phosphate buffer at 37° C. with constant shaking of 150 RPM. […]

Data set [4] in a line: Ibuprofen release from D-PLA-HSA stereocomplex tablets in phosphate buffer. The note with it: ibuprofen (100 mg) with D-PLA-HSA or D-PLA-L-PLA-HSA (500 mg), 300 mg tablets; phosphate buffer at physiological pH 37° C. As to the method: The precipitate of D-PLA-HSA prepared as described in Example 9 was also used as a matrix carrier for the delivery of small drugs. In a typical experiment, a fine powder of ibuprofen (100 mg) was mixed with the D-PLA-HSA or D-PLA-L-PLA-HSA (500 mg) and the powder was compressed into tablets of 300 mg each. The tablets released the ibuprofen for one week when placed in phosphate buffer at physiological pH 37° C. In similar experiments, other proteins were stereocomplexed with PLA enantiomers including fibrin, fibrinogen, collagen and gelatin.

A short description of data set [5]: LHRH release from PLA stereocomplex powders in phosphate buffer (syringe method, HPLC). The settings on record: nanosize complexes of LHRH with D-PLA, precipitated in hot acetonitrile. As for the experimental part: The analysis of LHRH was conducted using the following HPLC method: Mobile phase comprised 30% acetonitrile, 70% TEAP (triethylammoniumphosphate) buffer […] pH-3. Column comprised Lichrosphere RP-18 […] (MERCK); Detector. UV 278 nm and flow rate at 1 ml/min.
All samples were filtered through a 2μ filter. One drop of phosphoric acid was added to the sample solutions before injection. The retention time for LHRH was 6.5 minutes and a calibration curve was generated (r2=0.999).
Since the powder of the LHRH in the stereocomplex is very thin, all the attempts to sink it at the release medium failed. The release was conducted in the following way: 100 mg of the powder in 5 ml phosphate buffer were added to a 10 ml syringe. The edge of the syringe was sealed and constantly shaken at a rate of 150 RPM and a temperature of 37° C. At each interval of time, the syringe was inverted so that the solid floated at the top of the buffer and all of the buffer was pushed out of the syringe in a dropwise fashion. Using this technique, the powders of LHRH in PLA stereocomplex (formulations a-e) were analyzed against a control blank of PLA stereocomplex (no drug).

A short description of data set [6]: TRH release from D-PLA complex powder in phosphate buffer. The note with it: D-PLA complex powder (10% w/w TRH) dispersed in phosphate buffer pH7.4 at 37° C. As to the method: TRH is a tripeptide with the following structure: pL-Glu-L-His-L-Pro_NH2. 250 mg of D-PLA (Mw=30,000 or Mw=6,000) were mixed with 25 mg (10% w/w) of TRH in 10 ml acetonitrile at 60° C. The solution became clear after 15 minutes and remained clear for 72 hours, at which point precipitate formed. The solution was very turbid, but could not be filtered at room temperature due to the fine particle size of the precipitate. After cooling at 0° C. over night, the precipitate was filtered. The TRH concentration in the acetonitrile solution and in the powder was analyzed as described above using the Lowry method for peptide analysis. Over 90% of the drug was determined to be in the powder and a negligible amount of the drug was found in the acetonitrile solution. When dispersed in phosphate buffer pH7.4 at 37° C., TRH was constantly released for 6 weeks.

For `CCNC(=O)[C@@H]1CCCN1C(=O)[C@H](CCCNC(=N)N)NC(=O)[C@H](CC(C)C)NC(=O)[C@@H](CC(C)C)NC(=O)[C@H](Cc1ccc(O)cc1)NC(=O)[C@H](CO)NC(=O)[C@H](Cc1c[nH]c2ccccc12)NC(=O)[C@H](Cc1c[nH]cn1)NC(=O)[C@@H]1CCC(=O)N1` [Leuprolide, leuprolide acetate], the “drug (leuprolide) released constantly” value in data set [1] was “About 37%”.

As to `CCN(CC)CC(=O)Nc1c(C)cccc1C` [Lidocaine, lidocaine], in data set [2], the “time over which lidocaine was released constantly” value was 30 days. Take `CN(Cc1cnc2nc(N)nc(N)c2n1)c1ccc(C(=O)N[C@@H](CCC(=O)O)C(=O)O)cc1` [MTX, Methotrexate]: in data set [3], the “MTX constantly released from the PLA stereocomplex” value is listed as “About 30%”. On to `CC(C)Cc1ccc(C(C)C(=O)O)cc1` (stereo not drawn) [ibuprofen], for which the “time over which the tablets released ibuprofen” value in data set [4] is “one”. In the case of “Leutinizing Hormone Releasing Hormone [LHRH]”, the “time over which LHRH was constantly released from nanospheres” value in data set [5] was “over 3 weeks”.

On to pL-Glu-L-His-L-Pro_NH2 [TRH], for which the “time over which TRH was constantly released” value in data set [6] amounted to 6 weeks.
